# Where a name gives a salt, the structure may show the parent alone.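 Where inhibition never reached the appropriate level, the endpoint shown equals the highest concentration tested. Otherwise, values were interpolated linearly from a five-concentration, 48-hour dose response in 96-well plates. GI50 is the concentration that inhibits growth by half.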 Calls of active or inactive are those of the source. Cut-off read from the data, not from the text of the source: active = GI50 up to about 1.1 µM and inactive = higher.
# Key:
# Assay in all cases: NCI-60 cell line screen, 48 h
# SF-295 = system: SF-295
# CAKI-1 = system: CAKI-1
# SK-MEL-2 = system: SK-MEL-2
# RPMI-8226 = system: RPMI-8226
# OVCAR-5 = system: OVCAR-5
# UACC-257 = system: UACC-257
# KM12 = system: KM12
# SR = system: SR
# HT-29 = system: HT-29
# HCT-15 = system: HCT-15
# SNB-19 = system: SNB-19
# SW-620 = system: SW-620
# IGROV-1 = system: IGROV-1
# OVCAR-8 = system: OVCAR-8
# UACC-62 = system: UACC-62
# TK-10 = system: TK-10
# OVCAR-4 = system: OVCAR-4
# NCI-H226 = system: NCI-H226
# SN12C = system: SN12C
# SK-OV-3 = system: SK-OV-3
SMILES,GI50 (SF-295),GI50 (CAKI-1),GI50 (SK-MEL-2),GI50 (RPMI-8226),GI50 (OVCAR-5),GI50 (UACC-257),GI50 (KM12),GI50 (SR),GI50 (HT-29),GI50 (HCT-15) [µM],GI50 (SNB-19),GI50 (SW-620),GI50 (IGROV-1),GI50 (OVCAR-8),GI50 (UACC-62),GI50 (TK-10),GI50 (OVCAR-4),GI50 (NCI-H226),GI50 (SN12C),GI50 (SK-OV-3)
O=C1c2ccccc2C(=O)c2nc3c(O)cccc3cc21,12.7 µM (inactive),93.1 µM (inactive),> 100 µM (inactive),6.47 µM (inactive),89.7 µM (inactive),10.3 µM (inactive),47.6 µM (inactive),3.18 µM (inactive),21 µM (inactive),13,14.7 µM (inactive),3.57 µM (inactive),57.8 µM (inactive),26 µM (inactive),37.3 µM (inactive),74.5 µM (inactive),12.9 µM (inactive),74.5 µM (inactive),25.4 µM (inactive),
O=C(c1cc2ccccc2[nH]1)C(O)(c1cc2ccccc2[nH]1)c1cc2ccccc2[nH]1,154 µM (inactive),> 246 µM (inactive),> 246 µM (inactive),> 246 µM (inactive),> 246 µM (inactive),> 246 µM (inactive),> 246 µM (inactive),> 246 µM (inactive),> 246 µM (inactive),> 246,> 246 µM (inactive),> 246 µM (inactive),> 246 µM (inactive),> 246 µM (inactive),> 246 µM (inactive),> 246 µM (inactive),,50.9 µM (inactive),> 246 µM (inactive),> 246 µM (inactive)
CN1CCc2cc(O)c3cc2C1Cc1ccc(cc1)Oc1cc(ccc1O)CC1c2c(cc4c(c2O3)OCO4)CCN1C (centres undefined),21.5 µM (inactive),,16.1 µM (inactive),,27 µM (inactive),,29.9 µM (inactive),28.8 µM (inactive),21.2 µM (inactive),22.5,44.6 µM (inactive),,25.6 µM (inactive),19.8 µM (inactive),24.2 µM (inactive),24.2 µM (inactive),28.8 µM (inactive),22.9 µM (inactive),32.9 µM (inactive),
CC(=O)C1(Cc2cccc3ccccc23)S(=O)(=O)OCCOS1(=O)=O,0.843 µM (active),15.9 µM (inactive),,19.5 µM (inactive),17.6 µM (inactive),4.11 µM (inactive),15.4 µM (inactive),18.3 µM (inactive),17.5 µM (inactive),19.2,18.4 µM (inactive),18.3 µM (inactive),4.69 µM (inactive),19.5 µM (inactive),14.6 µM (inactive),17.3 µM (inactive),21.7 µM (inactive),16.8 µM (inactive),11.9 µM (inactive),2.72 µM (inactive)
CSc1nc(=O)n(CCC#N)nc1SC,> 100 µM (inactive),> 100 µM (inactive),14.5 µM (inactive),22.8 µM (inactive),41.8 µM (inactive),> 10 µM (inactive),> 100 µM (inactive),32.8 µM (inactive),51.6 µM (inactive),21.9,> 100 µM (inactive),21 µM (inactive),> 100 µM (inactive),59.6 µM (inactive),32.3 µM (inactive),40.2 µM (inactive),,39.3 µM (inactive),47.9 µM (inactive),> 100 µM (inactive)
CNNCc1ccc(C(=O)NC(C)C)cc1 [PROCARBAZINE HYDROCHLORIDE],> 500 µM (inactive),,> 500 µM (inactive),465 µM (inactive),> 439 µM (inactive),450 µM (inactive),> 500 µM (inactive),> 375 µM (inactive),> 474 µM (inactive),> 415,> 500 µM (inactive),> 500 µM (inactive),> 404 µM (inactive),> 500 µM (inactive),366 µM (inactive),> 500 µM (inactive),> 500 µM (inactive),> 381 µM (inactive),> 500 µM (inactive),> 493 µM (inactive)
CNc1ccc2ncccc2c1[N+](=O)[O-],> 100 µM (inactive),> 100 µM (inactive),> 100 µM (inactive),> 100 µM (inactive),> 100 µM (inactive),> 100 µM (inactive),> 100 µM (inactive),> 100 µM (inactive),> 100 µM (inactive),> 100,> 100 µM (inactive),> 100 µM (inactive),> 100 µM (inactive),> 100 µM (inactive),> 100 µM (inactive),> 100 µM (inactive),> 100 µM (inactive),> 100 µM (inactive),> 100 µM (inactive),

# — ChEMBL document CHEMBL1201862, “PubChem BioAssay data set” (2004)
